Test results taken from patent publication US11667630B2, “Nitrogen-containing 6-membered cyclic compound” (Asahi Kasei Pharma Corporation, priority 2017, dated 2023).

Experiments:
human EP3 receptor = target: T1, human EP3 receptor (Homo sapiens, UniProt P43115); assay: Receptor binding test, [3H]PGE2 binding inhibition, EP3; conditions: [3H]PGE2 1.54 nmol/L, membrane fraction HTS092M, 25°C 60 minutes
T1 construct: purchased Merck Millipore HTS092M
T1 sequence (P43115 1-390): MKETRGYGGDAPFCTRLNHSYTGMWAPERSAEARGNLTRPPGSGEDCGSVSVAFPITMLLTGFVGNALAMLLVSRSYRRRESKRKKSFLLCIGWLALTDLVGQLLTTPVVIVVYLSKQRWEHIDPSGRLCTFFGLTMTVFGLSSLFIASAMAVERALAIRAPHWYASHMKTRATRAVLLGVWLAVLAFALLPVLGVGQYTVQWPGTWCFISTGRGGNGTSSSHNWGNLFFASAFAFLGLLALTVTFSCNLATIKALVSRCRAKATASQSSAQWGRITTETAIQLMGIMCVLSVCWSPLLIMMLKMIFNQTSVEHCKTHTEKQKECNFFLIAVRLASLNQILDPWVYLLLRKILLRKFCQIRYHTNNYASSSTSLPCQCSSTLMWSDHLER
Protocol: (§1) In order to evaluate selectivity to each EP receptor subtype, [^3H]PGE2 binding-inhibition activities of test compounds for cell membranes on which human EP2, human EP3, and human EP4 receptors were stably expressed were measured.
(§2) As the membrane fractions of the prostaglandin E receptors EP2, EP3, and EP4, 10.0 μg protein/tube each of HTS185M, HTS092M, and HTS142M of Merck Millipore were used, respectively. Each membrane fraction was incubated with a reaction mixture (250 μL/tube) containing a test compound and [3H]PGE2 at 25° C. for 60 minutes. […] After the reaction, the membrane fraction was collected on filter paper by using a cell harvester, the filter paper was transferred to a measurement vial, and the measurement was performed on a liquid scintillation counter.
(§3) The nonspecific binding was determined as binding observed in the presence of excess amount (10 μM) of unlabeled PGE2. The measurement of the [3H]PGE2 binding-inhibiting activity of a test compound was performed by adding the test compound at various concentrations. The following buffers were used for the reaction.
Buffer for EP3: 50 mmol/L Tris-HCl buffer containing 10 mmol/L MgCl2, and 1 mmol/L EDTA

rat femur = assay: Neo-osteogenesis action in rat femur; format: in vivo; conditions: female SD rats, one week after administration; for Bone mineral content of femur 1/3 center region (mg) Left femur (administered with compound): 100 μg test compound in in situ-solidified gel solution injected between quadriceps and periosteum; for Bone mineral content of femur 1/3 center region (mg) Right femur (no administration of compound): contralateral femur, 100 μg test compound given at left femur
Protocol: Eight weeks old female SD rats (Charles River Japan) were fixed in the side lying position under triple anesthesia (medetomidine hydrochloride, midazolam, and butorphanol tartrate). After hair of the left femoral region was shaved with a hair clipper, and disinfection treatment was performed with 70% ethanol, an in situ-solidified gel solution of a test compound, specifically, a test compound dissolved in poly(lactic-co-glycolic acid) (RESOMER RG502H, produced by Evonik Industries)/poly(lactic-co-glycolic acid)-polyethylene glycol block copolymer (5050 DLG mPEG 5000, produced by Lakeshore Biomaterials)/N-methyl-2-pyrroridone (produced by Wako) (weight ratio 47%/3%/50%), was filled in a 1-mL syringe, a 21G injection needle was attached to the syringe, and the needle was transdermally stabbed from the quadriceps to the periosteum near the center of the femoral diaphyseal. Then, 100 μg as the amount of the test compound, or 50 μL as the administration volume of the solution was injected between the quadriceps and the periosteum, and the injection needle was drawn out. To the rats of the control group, the aforementioned in situ-solidified gel solution alone was administered. One week after the administration of the drug solution, the triple anesthesia was given to the animals, and they were fixed in the supine position, and euthanized by bleeding. […], circumferential tissues such as muscles were removed, the bone mineral content of the whole femur was measured by using a bone mineral analyzer DCS-600EX (produced by ALOKA), then it was divided into three portions along the long axis, and the bone mineral content of the center part (diaphysis) was evaluated. The test was performed with the groups each consisting of 6 animals.

human EP4 receptor [1] = target: T2, human EP4 receptor (Homo sapiens, UniProt P35408); assay: Measurement of EP4 agonist activity (cAMP production); format: cell-based; design: expressed in transfected cells; host or cells: HEK293; conditions: cAMP production in HEK293 cells stably expressing human EP4 receptor; average values where measured two or more times
T2 sequence (P35408 whole entry): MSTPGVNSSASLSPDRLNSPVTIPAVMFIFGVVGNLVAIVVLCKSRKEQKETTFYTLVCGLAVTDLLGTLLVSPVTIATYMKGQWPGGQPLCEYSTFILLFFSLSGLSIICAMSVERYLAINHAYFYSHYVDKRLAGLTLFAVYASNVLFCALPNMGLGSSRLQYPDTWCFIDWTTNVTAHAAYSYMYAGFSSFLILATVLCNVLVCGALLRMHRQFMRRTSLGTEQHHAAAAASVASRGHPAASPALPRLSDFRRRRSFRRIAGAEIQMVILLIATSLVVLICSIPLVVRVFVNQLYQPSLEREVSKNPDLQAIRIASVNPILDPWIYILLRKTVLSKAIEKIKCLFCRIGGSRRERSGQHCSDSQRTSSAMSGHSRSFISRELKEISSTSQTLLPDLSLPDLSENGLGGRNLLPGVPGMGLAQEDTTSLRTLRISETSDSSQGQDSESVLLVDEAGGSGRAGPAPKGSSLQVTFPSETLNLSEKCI
Protocol: In order to investigate EP4 receptor agonist activity of the compounds of the present invention, production of cAMP was measured in HEK293 cells that were made to stably express the human EP4 receptor.
By using Refseq Database, prostaglandin E receptor was searched for. As a result, gene information of human EP4 (NM_000958) receptor was obtained. On the basis of this sequence information, the human EP4 receptor gene was cloned by PCR in a conventional manner using human cDNA as the template, and HEK293 cells that were made to stably express the human EP4 receptor were established. When cryopreserved cells of this strain were thawed and used, cells subcultured three times or more within a certain period of time (about 1 to 2 weeks) by using Dulbecco's Modified Eagle's Medium (Dulbecco's Modified Eagle's Medium may be henceforth abbreviated as DMEM) containing 10% FBS, 50 units each of penicillin and streptomycin were used. The subcultured cells were inoculated in wells of a poly-D-lysine-coated 96-well plate at a density of 2×10^4 to 2.5×10^4 cells/well, and cultured for one day. The medium in the wells was removed by suction, then DMEM (80 μL) was added to each well, and incubation was performed at 37° C. for 15 minutes. […] The reaction was allowed at 37° C. for 30 minutes, then the medium was removed by suction, Assay/Lysis Buffer (100 μL) contained in cAMP Screen Kit (produced by Applied Biosystems) was added to terminate the reaction. Then, the reaction mixture was incubated at 37° C. for 30 minutes to prepare a sample for quantification of cAMP, and the amount of cAMP in the sample was quantified according to the method indicated in cAMP Screen Kit. By non-linear regression of the compound concentration and the amount of cAMP, the concentration of the compound required for increasing cAMP to 50% of the maximum increase (EC50 value) was calculated by using the Kaleida Graph.

human EP4 receptor [2] = target: T2, human EP4 receptor; assay: Receptor binding test, [3H]PGE2 binding inhibition, EP4; design: purchased Merck Millipore HTS142M; conditions: [3H]PGE2 1.24 nmol/L, membrane fraction HTS142M, 25°C 60 minutes
Protocol: as §1, §2, §3
Buffer for EP4: 50 mmol/L HEPES-NaOH (pH7.4) containing 5 mmol/L MgCl2, 1 mmol/L CaCl2), and 0.2% BSA

human EP2 receptor = target: T3, human EP2 receptor (Homo sapiens, UniProt P43116); assay: Receptor binding test, [3H]PGE2 binding inhibition, EP2; conditions: [3H]PGE2 2.56 nmol/L, membrane fraction HTS185M, 25°C 60 minutes
T3 construct: purchased Merck Millipore HTS185M
T3 sequence (P43116 whole entry): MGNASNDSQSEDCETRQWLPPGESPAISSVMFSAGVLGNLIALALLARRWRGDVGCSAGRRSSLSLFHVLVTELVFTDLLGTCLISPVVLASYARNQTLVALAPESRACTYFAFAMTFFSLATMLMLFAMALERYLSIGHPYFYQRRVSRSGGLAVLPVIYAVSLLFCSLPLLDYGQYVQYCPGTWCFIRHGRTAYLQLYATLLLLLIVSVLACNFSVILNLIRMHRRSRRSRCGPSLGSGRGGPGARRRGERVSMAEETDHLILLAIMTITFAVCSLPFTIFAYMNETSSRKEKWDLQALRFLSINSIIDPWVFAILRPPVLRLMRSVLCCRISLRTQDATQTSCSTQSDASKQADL
Protocol: as §1, §2, §3
Buffer for EP2: 50 mmol/L HEPES-NaOH (pH 7.4) containing 5 mmol/L MgCl2, 1 mmol/L CaCl2), and 0.2% BSA

O=C(O)c1ccc(CCN2C(=O)SCCN2CC[C@@H](O)Cc2cccc(C#Cc3ccoc3)c2)s1 [Example 26, (S)-5-(2-(4-(4-(3-(Furan-3-ylethynyl)phenyl)-3-hydroxybutyl)-2-oxo-1,3,4-thiadiazinan-3-yl)ethyl)thiophene-2-carboxylic acid]
IC50 (human EP3 receptor): > 1000 nM | Bone mineral content of femur 1/3 center region (mg) Left femur (administered with compound) (rat femur): 87.0 ± 1.6 mg | Bone mineral content of femur 1/3 center region (mg) Right femur (no administration of compound) (rat femur): 65.9 ± 1.2 mg | EC50 (human EP4 receptor [1]): 0.17 nM | IC50 (human EP4 receptor [2]): 16.2 nM | IC50 (human EP2 receptor): > 1000 nM

O=C(O)c1ccc(CCN2C(=O)SCCN2CCC(O)Cc2ccc(F)c(C#Cc3ccsc3)c2)s1 (stereo not drawn) [Example 20, 5-(2-(4-(4-(4-Fluoro-3-(thiophen-3-ylethynyl)phenyl)-3-hydroxybutyl)-2-oxo-1,3,4-thiadiazinan-3-yl)ethyl)thiophene-2-carboxylic acid]
Bone mineral content of femur 1/3 center region (mg) Left femur (administered with compound) (rat femur): 79.4 ± 5.2 mg | Bone mineral content of femur 1/3 center region (mg) Right femur (no administration of compound) (rat femur): 58.7 ± 3.6 mg | EC50 (human EP4 receptor [1]): 0.07 nM

O=C(O)c1ccc(CCN2C(=O)SCCN2CC[C@@H](O)Cc2cccc(C#Cc3cscn3)c2)s1 [Example 25, (S)-5-(2-(4-(3-Hydroxy-4-(3-(thiazol-4-ylethynyl)phenyl)butyl)-2-oxo-1,3,4-thiadiazinan-3-yl)ethyl)thiophene-2-carboxylic acid]
IC50 (human EP3 receptor): > 1000 nM | Bone mineral content of femur 1/3 center region (mg) Left femur (administered with compound) (rat femur): 79.1 ± 4.0 mg | Bone mineral content of femur 1/3 center region (mg) Right femur (no administration of compound) (rat femur): 61.0 ± 2.1 mg | EC50 (human EP4 receptor [1]): 0.095 nM | IC50 (human EP4 receptor [2]): 10.9 nM | IC50 (human EP2 receptor): > 1000 nM

O=C(O)c1ccc(CCN2C(=O)SCCN2CCC(O)Cc2cccc(C#Cc3ccoc3)c2)s1 (stereo not drawn) [Example 10, 5-(2-(4-(4-(3-(Furan-3-ylethynyl)phenyl)-3-hydroxybutyl)-2-oxo-1,3,4-thiadiazinan-3-yl)ethyl)thiophene-2-carboxylic acid]
Bone mineral content of femur 1/3 center region (mg) Left femur (administered with compound) (rat femur): 78.0 ± 1.5 mg | Bone mineral content of femur 1/3 center region (mg) Right femur (no administration of compound) (rat femur): 61.1 ± 0.5 mg | EC50 (human EP4 receptor [1]): 0.065 nM

Cc1cc(C#Cc2ccsc2)cc(CC(O)CCN2CCSC(=O)N2CCc2ccc(C(=O)O)s2)c1 (stereo not drawn) [Example 19, 5-(2-(4-(3-Hydroxy-4-(3-methyl-5-(thiophen-3-ylethynyl)phenyl)butyl)-2-oxo-1,3,4-thiadiazinan-3-yl)ethyl)thiophene-2-carboxylic acid]
Bone mineral content of femur 1/3 center region (mg) Left femur (administered with compound) (rat femur): 85.8 ± 2.3 mg | Bone mineral content of femur 1/3 center region (mg) Right femur (no administration of compound) (rat femur): 59.6 ± 1.4 mg | EC50 (human EP4 receptor [1]): 0.1 nM

Cc1cc(C#Cc2cccc(CC(O)CCN3CCSC(=O)N3CCc3ccc(C(=O)O)s3)c2)cs1 (stereo not drawn) [Example 6, 5-(2-(4-(3-Hydroxy-4-(3-((5-methylthiophen-3-yl)ethynyl)phenyl)butyl)-2-oxo-1,3,4-thiadiazinan-3-yl)ethyl)thiophene-2-carboxylic acid]
Bone mineral content of femur 1/3 center region (mg) Left femur (administered with compound) (rat femur): 81.3 ± 3.6 mg | Bone mineral content of femur 1/3 center region (mg) Right femur (no administration of compound) (rat femur): 64.7 ± 2.4 mg | EC50 (human EP4 receptor [1]): 0.56 nM

O=C(O)c1ccc(CCN2C(=O)SCCN2CCC(O)Cc2cc(C#Cc3ccsc3)cs2)s1 (stereo not drawn) [Example 22, 5-(2-(4-(3-Hydroxy-4-(4-(thiophen-3-ylethynyl)thiophen-2-yl)butyl)-2-oxo-1,3,4-thiadiazinan-3-yl)ethyl)thiophene-2-carboxylic acid]
Bone mineral content of femur 1/3 center region (mg) Left femur (administered with compound) (rat femur): 79.5 ± 1.9 mg | Bone mineral content of femur 1/3 center region (mg) Right femur (no administration of compound) (rat femur): 60.3 ± 2.7 mg | EC50 (human EP4 receptor [1]): 0.055 nM
